From publication PMC5556071, “ATR inhibition facilitates targeting of leukemia dependence on convergent nucleotide biosynthetic pathways” (Nature Communications, 2017)
Values joined by “and” are separate entries in the source; they are usually repeats but may differ in a detail not shown here. Equal values may be shown once.

Test system: CEM cells
Assay: Non-targeted LC-MS metabolite profiling: percent [13C6]glucose labeling and relative metabolite levels
Format: cell-based, human
Conditions: CEM cells, 12 h following release from G1 arrest, replicates #1-#6
Excerpt: To further investigate the functions of dCK and ATR at the G1/S transition in CEM cells, a non-targeted liquid chromatography mass spectrometry (LC-MS) assay was used to determine the utilization of labeled [^13C6]glucose and [^13C9,^15N3]deoxycytidine, the main substrates for de novo and salvage nucleotide biosynthesis, respectively. Of the 166 metabolites identified in CEM cells treated with VE-822 and/or dCKi, 105 metabolites found in all four treatment groups contained glucose-derived ^13C atoms. […] These metabolites included intermediates such as rUTP, rCTP and rCDP in the de novo dCTP biosynthesis (Fig. 1d). […] However, several deoxyribonucleotides, including dCTP, were below the limit of detection of the non-targeted LC-MS approach, raising the concern that the sensitivity of this assay is not sufficient to measure the contribution of the salvage pathway or the ratio of de novo and salvage biosynthesis to these pools. To address this problem, a newly developed targeted MS assay was developed (Fig. 1e and Supplementary Fig. 3). In this assay, samples containing either extracted dNTPs or hydrolyzed DNA from labeled cells are separated by LC for detection by a triple quadrupole mass spectrometer using multiple reaction monitoring (LC-MS/MS-MRM). The first (Q1) and third (Q3) quadrupoles function as mass filters, while the second (Q2) quadrupole serves as a collision chamber (Fig. 1e). For instance, to profile the biosynthetic composition of deoxycytidine (dC) derived from hydrolyzed DNA or dCTP, an intact, protonated dC ion is selected in Q1, followed by fragmentation of the glycosidic bond, which releases protonated cytosine in Q2, that is filtered in Q3 and detected to generate an ion chromatogram. The peak areas for the ion chromatograms of salvage [^13C9,^15N3]dC (red trace), de novo [^13C5]dC (black trace, from [^13C6]glucose) and unlabeled dC (gray trace) (Fig. 1e) are used to determine the relative contributions of the de novo and salvage routes both to dCTP pools and to DNA-incorporated dCTP.
Cells were transferred into RPMI-1640 without glucose and supplemented with 10% dialyzed FBS (Gibco) containing the following labeled substrates: precursors for de novo [U-^13C6]glucose (Sigma-Aldrich, 389374) at 11 mM; precursors for purine salvage [U-^13C10,^15N5]dA (Cambridge Isotopes, CIL 3896), [^15N5]dA (Cambridge Isotopes, NLM-3895) and [^15N5]dG (Cambridge Isotopes, NLM-3899) at 5 µM or as indicated; and precursors for pyrimidine salvage: [U-^13C9,^15N3]dC (Silantes, 124603602) and [U-^13C10,^15N2]dT (Cambridge Isotopes, CNLM-3902) at 5 µM and [^15N2]orotate (Cambridge Isotopes, NLM-1048) at indicated concentrations. The cells were incubated for 12 h or as indicated before sample collection and processing. […]
Non-targeted LC-MS metabolic assays. 1 x 10^6 cells were washed with ice-cold 150 mM ammonium acetate twice before adding 1 mL of ice-cold 80% methanol with 10 nM norvaline as an internal standard. After vigorous vortexing, samples were centrifuged at maximum speed, the aqueous layer was transferred to a glass vial and the metabolites were dried under vacuum. Metabolites were resuspended in 50 μL 70% acetonitrile (ACN) and 5 μL of this solution used for the mass spectrometer-based analysis. The analysis was performed on a Q Exactive (Thermo Scientific) in polarity-switching mode with positive voltage 4.0 kV and negative voltage 4.0 kV. The mass spectrometer was coupled to an UltiMate 3000RSLC (Thermo Scientific) UHPLC system. Mobile phase A was 5 mM ammonium acetate (NH4AcO), pH 9.9, B was acetonitrile and the separation achieved on a Luna […] NH2 100 A column (150 × 2.0 mm, Phenomenex). The flow was 200 μL/min, and the gradient ran from 15% A to 95% A in 18 min, followed by an isocratic step for 9 min and re-equilibration for 7 min. Metabolites were detected and quantified as area under the curve based on retention time and accurate mass (≤ 3 p.p.m.) using the TraceFinder 3.1 (Thermo Scientific). Relative amounts of […]

[1] = metabolite CDP (KEGG C00112), listed as V
[2] = metabolite CDP-EtA (KEGG C00570), listed as V
[3] = metabolite CMP (KEGG C00055), listed as V
[4] = metabolite CTP (KEGG C00063), listed as V
[5] = metabolite Choline (KEGG C00114), listed as V
[6] = metabolite Cinnamic acid (KEGG C00423), listed as V
[7] = metabolite Cit (KEGG C00158), listed as V
[8] = metabolite Citraconic acid (KEGG C02226), listed as V
[9] = metabolite Creatine (KEGG C00300), listed as V
[10] = metabolite Creatinine (KEGG C00791), listed as V
[11] = metabolite Cytosine (KEGG C00380), listed as V
[12] = metabolite DMG (KEGG C01026), listed as V
[13] = metabolite Dihydroorotate (KEGG C00337), listed as V
[14] = metabolite F16BP (KEGG C00354), listed as V
[15] = metabolite Folate (KEGG C00504), listed as V
[16] = metabolite Fru (KEGG C00095), listed as V
[17] = metabolite Fum (KEGG C00122), listed as V
[18] = metabolite G (KEGG C00387), listed as V
[19] = metabolite dG (KEGG C00330), listed as V
[20] = metabolite dTMP (KEGG C00364), listed as V

CNCc1ccc(-c2cc(-c3nc(-c4ccc(S(=O)(=O)C(C)C)cc4)cnc3N)on2)cc1 [VE-822]
Glucose labeling of CDP [1]: 46.58% and 27.42% and 42.30% and 38.55% and 26.25% and 39.84% | Relative level of CDP [1]: 3.4 and 1.2 and 1.9 and 1.6 and 0.8 and 0.754 | Glucose labeling of CDP-EtA [2]: 25.10% and 38.04% and 37.00% and 40.76% and 32.59% and 33.65% | Relative level of CDP-EtA [2]: 0.7 (3×) and 0.9 and 0.744 and 0.633 | Glucose labeling of CMP [3]: 38.36% and 31.49% and 41.31% and 20.57% and 40.83% and 49.90% | Relative level of CMP [3]: 3.0 and 2.7 and 2.4 and 1.7 and 0.9 and 0.7 | Glucose labeling of CTP [4]: 40.85% and 37.06% and 39.44% and 47.60% and 38.66% and 34.33% | Relative level of CTP [4]: 1.6 and 0.5 and 0.8 and 0.848 and 0.468 and 0.448 | Glucose labeling of Choline [5]: 0.00248% (3×) and 0.00264% and 0.0024% and 0.00242% | Relative level of Choline [5]: 1.2 and 1.3 and 1.4 and 0.849 and 0.8 (2×) | Glucose labeling of Cinnamic acid [6]: 0.00% (5×) and 1.11e-14% | Relative level of Cinnamic acid [6]: 1.7 and 1.5 and 1.6 and 1.0 (2×) and 0.9 | Glucose labeling of Cit [7]: 50.64% and 47.53% and 49.55% and 44.89% and 45.53% and 45.28% | Relative level of Cit [7]: 0.9 and 0.6 and 0.7 and 0.47 and 0.449 and 0.454 | Glucose labeling of Citraconic acid [8]: 0.00% (5×) and -2.22e-14% | Relative level of Citraconic acid [8]: 1.1 (3×) and 1.6 and 0.8 and 1.0 | Glucose labeling of Citrulline (metabolite Citrulline (KEGG C00327)): 0.18% | Relative level of Citrulline (metabolite Citrulline (KEGG C00327), listed as V): 0.5 and 1.2 (2×) and 2.5 and 0.3 and 0.335 | Glucose labeling of Creatine [9]: 0.000881% and 0.000842% and 0.000971% and 0.000748% and 0.000833% and 0.000956% | Relative level of Creatine [9]: 1.0 and 1.1 (2×) and 0.8 and 0.9 and 0.852 | Glucose labeling of Creatinine [10]: 0.000588% and 0.000811% and 0.000818% and 0.000809% and 0.000725% and 0.000748% | Relative level of Creatinine [10]: 1.0 (3×) and 1.1 and 1.2 and 0.848 | Glucose labeling of Cystathionine (metabolite Cystathionine (KEGG C02291)): 0.26% | Relative level of Cystathionine (metabolite Cystathionine (KEGG C02291), listed as V): 1.0 and 0.182 and 1.1 and 0.2 and 0.4 and 0.251 | Glucose labeling of Cytosine [11]: 0.00381% and 0.000394% and 0.000743% and 0.000956% and 0.000512% and 0.0321% | Relative level of Cytosine [11]: 1.4 and 1.7 and 3.0 and 5.5 and 1.6 and 0.9 | Glucose labeling of DHAP (metabolite DHAP (KEGG C00111)): 100.00% | Relative level of DHAP (metabolite DHAP (KEGG C00111), listed as V): 5.8 and 0.3 and 1.3 and 1.2 and 0.2 | Glucose labeling of DMG [12]: 0.0737% and 0.02% and 0.04% and 0.06% and 0.0145% and 0.05% | Relative level of DMG [12]: 0.7 and 1.3 and 1.0 (2×) and 0.527 and 0.9 | Glucose labeling of Dihydroorotate [13]: 0.55% and 0.92% and 0.10% and 0.96% and 0.80% and 0.09% | Relative level of Dihydroorotate [13]: 0.9 and 0.7 and 0.8 and 0.754 and 0.5 and 0.468 | Glucose labeling of F16BP [14]: 97.93% and 88.56% and 94.79% and 95.15% and 79.77% and 75.67% | Relative level of F16BP [14]: 9.1 and 1.1 and 2.4 and 2.6 and 0.552 and 0.456 | Glucose labeling of Folate [15]: 0.00% (5×) and 100.00% | Relative level of Folate [15]: 0.546 and 1.0 and 0.5 and 0.4 and 0.9 | Glucose labeling of Fru [16]: 58.79% and 68.43% and 78.80% and 67.26% and 65.64% and 42.97% | Relative level of Fru [16]: 3.7 and 3.5 and 2.9 and 1.6 and 1.8 and 2.4 | Glucose labeling of Fum [17]: 15.89% and 14.12% and 10.85% and 10.48% and 12.71% and 7.86% | Relative level of Fum [17]: 1.3 and 0.8 (2×) and 1.1 and 0.565 and 0.5 | Glucose labeling of G [18]: 0.55% (4×) and 100.00% (2×) | Relative level of G [18]: 1.1 and 0.852 and 0.9 and 1.6 | Glucose labeling of dATP (metabolite dATP (KEGG C00131)): 100.00% | Relative level of dATP (metabolite dATP (KEGG C00131)): 0.6 | Glucose labeling of dCTP (metabolite dCTP (KEGG C00458)): 100.00% | Relative level of dCTP (metabolite dCTP (KEGG C00458)): 0.0 | Glucose labeling of dG [19]: 0.38% and 0.48% and 0.49% and 0.0145% and 0.37% and 0.09% | Relative level of dG [19]: 1.7 (2×) and 1.1 (2×) and 6.1 and 1.0 | Relative level of dGDP (metabolite dGDP (KEGG C00361)): 61.2 | Glucose labeling of dGDP (metabolite dGDP (KEGG C00361), listed as V): 100.00% (5×) and 0.38% | Glucose labeling of dTMP [20]: 0.55% and 100.00% (4×) and 82.28% | Relative level of dTMP [20]: 0.7 and 6.1 and 3.9 and 1.9 and 0.6 and 0.453 | Glucose labeling of dTTP (metabolite dTTP (KEGG C00459)): 100.00% | Relative level of dTTP (metabolite dTTP (KEGG C00459), listed as V): 0.47 and 0.4 | Glucose labeling, Leu/Ile: 0.00% | Glucose labeling, NAD+: 0.00% | Glucose labeling, P-Creatine: 0.0737% | Glucose labeling, P-EtA: 0.0123% | Glucose labeling, PEP: 100.00% | Glucose labeling, Phe: 0.00% | Glucose labeling, Pipecolate: 0.00% | Glucose labeling, Pyr: 100.00% | Glucose labeling, Sarc (C00213): 0.0369% | Glucose labeling, Thr (C00188): 0.00% | Glucose labeling, Trigonelline (C01004): 0.00%
